# Experimental data: ChEMBL document CHEMBL5543162, “Discovery of a Novel Orally Bioavailable FLT3-PROTAC Degrader for Efficient Treatment of Acute Myeloid Leukemia and Overcoming Resistance of FLT3 Inhibitors” (J Med Chem, 2024)
# pIC50: −log10 of the molar value. Calls of active or inactive are those of the source. The calls are words filed in the database; no cut-off is given here.
# What was measured:
# BaF3 [1] = assay: Antiproliferative activity against mouse Ba/F3 cells expressing FLT3-ITD Y842H mutant incubated for 48 hrs by CCK8 assay; type: functional, cell-based; settings: BaF3, 48 h
# [2] = Stability in mouse liver microsomes assessed as intrinsic clearance; type: ADME, Microsome; settings: read-out: CLH
# [3] = Antiproliferative activity against human PBMC cells at 30 to 1000 nM incubated for 48 hrs by CCK8 assay; type: toxicity, cell-based; settings: 1 µM, dose 30-1000 nM
# MV4-11 [4] = assay: Induction of cell cycle arrest at G1 phase in human MV4-11 cells at 50 nM incubated for 24 hrs by PI/RNase staining based flow cytometry relative to control; type: functional
# [5] = Antiproliferative activity against mouse Ba/F3 FLT3-ITD cells incubated for 48 hrs by CCK8 assay; type: functional, cell-based
# [6] = Oral bioavailability in Sprague-Dawley rat at 10 mg/kg measured for 24 hrs by LC-MS/MS analysis; type: ADME, organism-based; settings: in vivo
# Cytochrome P450 2C9 = Cytochrome P450 2C9 (Homo sapiens, UniProt P11712); assay: Inhibition of CYP2C9 (unknown origin); type: ADME
# Cytochrome P450 2C9, sequence (P11712 whole entry): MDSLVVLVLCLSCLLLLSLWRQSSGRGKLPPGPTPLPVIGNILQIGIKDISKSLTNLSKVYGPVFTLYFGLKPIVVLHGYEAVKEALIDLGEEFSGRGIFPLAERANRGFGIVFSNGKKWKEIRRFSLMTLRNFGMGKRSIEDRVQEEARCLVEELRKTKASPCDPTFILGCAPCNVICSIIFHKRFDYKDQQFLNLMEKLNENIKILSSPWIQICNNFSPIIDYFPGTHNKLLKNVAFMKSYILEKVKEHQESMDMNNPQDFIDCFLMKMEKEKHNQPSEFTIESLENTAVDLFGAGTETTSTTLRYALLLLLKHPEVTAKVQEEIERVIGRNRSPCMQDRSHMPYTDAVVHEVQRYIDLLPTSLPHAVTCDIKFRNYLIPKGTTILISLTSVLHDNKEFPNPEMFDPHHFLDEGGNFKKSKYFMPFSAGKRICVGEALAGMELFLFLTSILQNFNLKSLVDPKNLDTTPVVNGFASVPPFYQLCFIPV
# [7] = system: Protein cereblon/Receptor-type tyrosine-protein kinase FLT3 (Homo sapiens), P36888+Q96SW2 [UNDEFINED MUTATION]; assay: PROTAC activity at CRBN/FLT3-ITD mutant in human MV4-11 cells assessed as protein degradation at 100 nM incubated for 8 hrs in presence of bortezomib by Western blot analysis; type: cell-based
# Protein cereblon/Receptor-type tyrosine-protein kinase FLT3 (Homo sapiens), P36888+Q96SW2 [UNDEFINED MUTATION], sequence (P36888 whole entry, looked up, stated change not applied): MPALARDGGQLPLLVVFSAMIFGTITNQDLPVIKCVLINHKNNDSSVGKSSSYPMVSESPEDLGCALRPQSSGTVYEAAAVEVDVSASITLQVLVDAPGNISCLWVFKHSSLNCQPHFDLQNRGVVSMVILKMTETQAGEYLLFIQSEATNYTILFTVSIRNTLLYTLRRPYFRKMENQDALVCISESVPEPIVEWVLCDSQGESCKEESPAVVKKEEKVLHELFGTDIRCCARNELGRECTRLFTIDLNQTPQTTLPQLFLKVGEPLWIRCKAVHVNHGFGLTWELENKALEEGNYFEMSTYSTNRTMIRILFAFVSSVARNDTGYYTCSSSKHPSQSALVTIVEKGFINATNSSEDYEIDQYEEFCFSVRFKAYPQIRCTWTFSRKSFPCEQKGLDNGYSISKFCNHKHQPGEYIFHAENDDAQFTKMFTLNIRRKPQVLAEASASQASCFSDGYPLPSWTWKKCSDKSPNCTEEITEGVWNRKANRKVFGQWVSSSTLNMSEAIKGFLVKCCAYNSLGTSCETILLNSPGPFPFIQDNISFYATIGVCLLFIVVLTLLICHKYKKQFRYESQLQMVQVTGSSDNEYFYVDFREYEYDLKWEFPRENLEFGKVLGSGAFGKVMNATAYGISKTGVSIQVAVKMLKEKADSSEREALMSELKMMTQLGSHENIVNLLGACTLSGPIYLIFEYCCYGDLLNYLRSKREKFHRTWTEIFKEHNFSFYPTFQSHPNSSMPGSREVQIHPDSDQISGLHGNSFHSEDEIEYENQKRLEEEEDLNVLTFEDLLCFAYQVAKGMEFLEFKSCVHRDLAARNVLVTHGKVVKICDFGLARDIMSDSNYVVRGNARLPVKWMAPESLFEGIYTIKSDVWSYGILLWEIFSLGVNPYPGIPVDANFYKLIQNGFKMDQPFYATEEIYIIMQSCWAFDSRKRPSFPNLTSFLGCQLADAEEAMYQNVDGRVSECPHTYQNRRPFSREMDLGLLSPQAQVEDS
# Protein cereblon/Receptor-type tyrosine-protein kinase FLT3 (Homo sapiens), P36888+Q96SW2 [UNDEFINED MUTATION], sequence (Q96SW2 whole entry, looked up, stated change not applied): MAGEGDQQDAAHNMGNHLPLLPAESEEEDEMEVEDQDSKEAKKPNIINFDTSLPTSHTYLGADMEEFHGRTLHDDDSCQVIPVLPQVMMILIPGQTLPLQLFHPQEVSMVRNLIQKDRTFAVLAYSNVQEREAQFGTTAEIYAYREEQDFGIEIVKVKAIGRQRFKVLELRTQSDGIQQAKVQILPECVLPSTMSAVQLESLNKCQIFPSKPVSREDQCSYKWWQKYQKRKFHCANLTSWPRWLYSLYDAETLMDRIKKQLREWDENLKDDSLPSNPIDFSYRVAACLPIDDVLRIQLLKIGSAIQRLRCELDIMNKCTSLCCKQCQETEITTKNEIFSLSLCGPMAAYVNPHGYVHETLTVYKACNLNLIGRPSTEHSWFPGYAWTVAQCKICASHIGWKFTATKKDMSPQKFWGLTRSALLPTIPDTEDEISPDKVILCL
# [8] = system: Protein cereblon/Receptor-type tyrosine-protein kinase FLT3 (Homo sapiens), P36888+Q96SW2 [UNDEFINED MUTATION]; assay: PROTAC activity at CRBN/FLT3-ITD mutant in human MV4-11 cells assessed as decrease in S6K level at 20 nM by Western blot analysis; type: cell-based; settings: time <= 12.0 hrs, TDE = time-dependent effect
# [9] = Stability in human liver microsomes assessed as half life; type: ADME, Microsome
# [10] = Stability in Sprague-Dawley rat plasma at 50 ug/ml incubated upto 8 hrs by LC-MS/MS analysis; type: ADME, cell-free; settings: at 50 µg/mL
# [11] = Toxicity in NSG mouse xenografted with human MV4-11 cells expressing luciferase assessed as physiological change at 10 mg/kg, po administered daily for 3 weeks; type: organism-based; settings: in vivo, 504 h
# [12] = Toxicity in NSG mouse xenografted with human MV4-11 cells expressing luciferase assessed as obvious adverse response at 1.25 to 10 mg/kg, po administered daily for 3 weeks; type: organism-based; settings: in vivo, 504 h, dose 1.25-10 mg/kg
# [13] = system: Protein cereblon/Receptor-type tyrosine-protein kinase FLT3 (Homo sapiens), P36888+Q96SW2 [UNDEFINED MUTATION]; assay: PROTAC activity at CRBN/FLT3-ITD mutant in human MV4-11 cells assessed as protein degradation at 20 nM by Western blot analysis; type: cell-based; settings: time <= 12.0 hrs, TDE = time-dependent effect
# BaF3 [14] = assay: Antiproliferative activity against mouse Ba/F3 cells expressing FLT3-ITD F691L mutant incubated for 48 hrs by CCK8 assay; type: functional, cell-based; settings: BaF3, 48 h
# Cytochrome P450 1A2 = biological target: T1, Cytochrome P450 1A2 (Homo sapiens, UniProt P05177); assay: Inhibition of CYP1A2 (unknown origin); type: ADME
# T1 sequence (P05177 whole entry): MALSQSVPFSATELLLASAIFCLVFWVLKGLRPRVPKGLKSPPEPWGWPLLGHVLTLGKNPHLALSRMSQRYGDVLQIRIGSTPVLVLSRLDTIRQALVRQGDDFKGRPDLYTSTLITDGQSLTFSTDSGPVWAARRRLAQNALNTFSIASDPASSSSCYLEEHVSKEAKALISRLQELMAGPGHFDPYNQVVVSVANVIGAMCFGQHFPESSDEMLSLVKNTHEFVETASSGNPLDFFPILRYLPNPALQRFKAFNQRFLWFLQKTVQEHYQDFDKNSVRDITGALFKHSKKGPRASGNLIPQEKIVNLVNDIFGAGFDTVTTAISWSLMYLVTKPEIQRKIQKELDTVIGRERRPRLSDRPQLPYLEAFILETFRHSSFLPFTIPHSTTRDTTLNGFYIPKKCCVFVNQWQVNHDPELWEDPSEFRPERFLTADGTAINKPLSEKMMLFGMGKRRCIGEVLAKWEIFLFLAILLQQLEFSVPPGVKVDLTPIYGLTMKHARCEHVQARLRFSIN
# BaF3 [15] = assay: Antiproliferative activity against mouse Ba/F3 cells expressing FLT3-ITD D835Y mutant incubated for 48 hrs by CCK8 assay; type: functional, cell-based; settings: BaF3, 48 h
# Cytochrome P450 2D6 = Cytochrome P450 2D6 (Homo sapiens, UniProt P10635); assay: Inhibition of CYP2D6 (unknown origin); type: ADME
# Cytochrome P450 2D6, sequence (P10635 whole entry): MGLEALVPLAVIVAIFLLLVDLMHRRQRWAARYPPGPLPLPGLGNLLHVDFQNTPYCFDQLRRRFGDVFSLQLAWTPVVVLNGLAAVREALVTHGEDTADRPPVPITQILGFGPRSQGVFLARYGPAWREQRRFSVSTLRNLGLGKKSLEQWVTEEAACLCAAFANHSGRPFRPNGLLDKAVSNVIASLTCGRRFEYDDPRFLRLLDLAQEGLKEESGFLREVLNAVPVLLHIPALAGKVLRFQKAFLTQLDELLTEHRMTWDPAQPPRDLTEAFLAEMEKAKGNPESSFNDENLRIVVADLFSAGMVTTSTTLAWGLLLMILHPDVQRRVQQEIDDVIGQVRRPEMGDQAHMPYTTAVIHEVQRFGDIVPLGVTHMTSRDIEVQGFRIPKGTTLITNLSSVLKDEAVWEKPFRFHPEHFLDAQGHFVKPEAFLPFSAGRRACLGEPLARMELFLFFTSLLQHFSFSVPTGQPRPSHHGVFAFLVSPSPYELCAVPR
# CYP3A4/CYP3A5 = CYP3A4/CYP3A5 (Homo sapiens, UniProt P08684+P20815); assay: Inhibition of CYP3A4/CYP3A5 (unknown origin) using midazolam as substrate; type: ADME, protein assay; settings: probe midazolam
# [16] = system: Protein cereblon/Receptor-type tyrosine-protein kinase FLT3 (Homo sapiens), P36888+Q96SW2 [UNDEFINED MUTATION]; assay: PROTAC activity at CRBN/FLT3-ITD mutant in human MV4-11 cells assessed as protein degradation at 100 nM incubated for 24 hrs followed by compound washout measured upto 48 hrs by Western blot analysis; type: cell-based; settings: time 72.0 hrs
# [17] = Antiproliferative activity against human THP-1 cells expressing wild-type FLT3 incubated for 48 hrs by CCK8 assay; type: toxicity, cell-based
# [18] = Stability in human liver microsomes assessed as intrinsic clearance; type: ADME, Microsome; settings: read-out: CLH
# [19] = Toxicity in nu/nu mouse xenografted with human MV4-11 cells assessed as change in body weight at 1.25 to 10 mg/kg, po administered daily for 2 weeks; type: organism-based; settings: in vivo, 336 h, dose 1.25-10 mg/kg
# [20] = system: Protein cereblon/Receptor-type tyrosine-protein kinase FLT3 (Homo sapiens), P36888+Q96SW2 [UNDEFINED MUTATION]; assay: PROTAC activity at CRBN/FLT3-ITD mutant in human MOLM-13 cells assessed as decrease in S6K level incubated for 12 hrs by Western blot analysis; type: cell-based; settings: dose <= 20.0 nM
# [21] = AUC (0 to t) in Sprague-Dawley rat at 10 mg/kg, po measured for 24 hrs by LC-MS/MS analysis; type: ADME, organism-based; settings: in vivo
# [22] = Stability in mouse liver microsomes assessed as hepatic clearance; type: ADME, Microsome
# [23] = system: Protein cereblon/Receptor-type tyrosine-protein kinase FLT3 (Homo sapiens), P36888+Q96SW2 [UNDEFINED MUTATION]; assay: PROTAC activity at CRBN/FLT3-ITD mutant in human MV4-11 cells assessed as decrease in STAT5 level at 20 nM by Western blot analysis; type: cell-based; settings: time <= 12.0 hrs, TDE = time-dependent effect
# [24] = system: Protein cereblon/Receptor-type tyrosine-protein kinase FLT3 (Homo sapiens), P36888+Q96SW2 [UNDEFINED MUTATION]; assay: PROTAC activity at CRBN/FLT3-ITD in human MV4-11 cells assessed as effect on PI3K-Akt signalling pathway by KEGG analysis; type: cell-based
# MV4-11 [25] = assay: Antitumor activity against human MV4-11 cells expressing luciferase xenografted in NSG mouse assessed as increase in animal survival at 5 mg/kg, po administered daily for 3 weeks and measured for 66 days; type: functional, organism-based; settings: time 66.0 day
# MV4-11 [26] = assay: Antitumor activity against human MV4-11 cells xenografted in nu/nu mouse at 2.5 mg/kg, po administered daily for 2 weeks relative to control; type: functional; settings: MV4-11, 336 h, read-out: TGI
# [27] = Stability in monkey liver microsomes assessed as intrinsic clearance; type: ADME, Microsome; settings: chlorocebus aethiops, read-out: CLH
# MV4-11 [28] = assay: Antitumor activity against human MV4-11 cells xenografted in nu/nu mouse at 1.25 mg/kg, po administered daily for 2 weeks relative to control; type: functional; settings: MV4-11, 336 h, read-out: TGI
# [29] = system: Protein cereblon/Receptor-type tyrosine-protein kinase FLT3 (Homo sapiens), P36888+Q96SW2 [UNDEFINED MUTATION]; assay: PROTAC activity at CRBN/FLT3-ITD mutant in human MOLM-13 cells assessed as protein degradation incubated for 12 hrs by Western blot analysis; type: cell-based; settings: dose <= 20.0 nM
# MV4-11 [30] = assay: Induction of proapoptosis in human MV4-11 cells xenografted in nu/nu mouse assessed as increase in cleaved caspase-3 level at 1.25 to 10 mg/kg, po administered daily for 2 weeks; type: functional, organism-based; settings: dose 1.25-10 mg/kg
smiles,measurement,setting,value
Cc1c(NC(=O)CN2CCN(CC3CCN(c4ccc5c(c4)C(=O)N(C4CCC(=O)NC4=O)C5=O)CC3)CC2)c[nH]c1/C=C1\C(=O)Nc2ccc(F)cc21 (centres undefined),pIC50,BaF3 [1],7.33
same,CLint scaled,[2],92.7 mL/min/kg
same,Activity,[3],Non-Toxic
same,Activity,MV4-11 [4],89.2%
same,pIC50,[5],7.77
same,bioavailability,[6],53%
same,pIC50,Cytochrome P450 2C9,< 4.30
same,Activity,[7],inactive
same,Activity,[8],Tde
same,half-life,[9],1.16 h
same,Stability,[10],Stable
same,Activity,[11],Non-Toxic
same,Activity,[12],Non-Toxic
same,Activity,[13],Tde
same,pIC50,BaF3 [14],7.18
same,pIC50,Cytochrome P450 1A2,< 4.30
same,pIC50,BaF3 [15],7.50
same,pIC50,Cytochrome P450 2D6,< 4.30
same,pIC50,CYP3A4/CYP3A5,< 4.30
same,Activity,[16],Active
same,IC50 at 48 h,[17],15100 nM
same,CLint scaled,[18],23.1 mL/min/kg
same,Activity,[19],Non-Toxic
same,Activity,[20],Dose-Dependent Effect
same,AUC(0-t) at 24 h,[21],14700 ng·h/mL
same,CLhep predicted,[22],45.7 mL/min/kg
same,Activity,[23],Tde
same,Activity,[24],Active
same,Activity,MV4-11 [25],Active
same,inhibition in vivo at 2.5 mg/kg,MV4-11 [26],84.4%
same,CLint scaled,[27],50.7 mL/min/kg
same,inhibition in vivo at 1.25 mg/kg,MV4-11 [28],51.4%
same,Activity,[29],Dose-Dependent Effect
same,Activity,MV4-11 [30],Active
